{
  "source": "patent US20230357430A1",
  "about": "“RNF167 AND CASTOR1 AS NOVEL MTOR TARGETS” (UNIVERSITY OF PITTSBURGH - OF THE COMMONWEALTH SYSTEM OF …, priority 2020, published 2023)",
  "molecules": {"B1": {"name": "human CASTOR1 wild type (Flag-CASTOR1 WT) (other, UniProt Q8WTX7 1-329, looked up)", "chain": "MELHILEHRVRVLSVARPGLWLYTHPLIKLLFLPRRSRCKFFSLTETPEDYTLMVDEEGFKELPPSEFLQVAEATWLVLNVSSHSGAAVQAAGVTKIARSVIAPLAEHHVSVLMLSTYQTDFILVREQDLSVVIHTLAQEFDIYREVGGEPVPVTRDDSSNGFPRTQHGPSPTVHPIQSPQNRFCVLTLDPETLPAIATTLIDVLFYSHSTPKEAASSSPEPSSITFFAFSLIEGYISIVMDAETQKKFPSDLLLTSSSGELWRMVRIGGQPLGFDECGIVAQIAGPLAAADISAYYISTFNFDHALVPEDGIGSVIEVLQRRQEGLAS", "notes": "Expressed in cells and pulled down from lysates; also called HA-CASTOR1; cytosolic arginine sensor for mTORC1 subunit 1; not shown: N-terminal Flag tag"}},
  "key": {"[1]": {"test_system": "CASTOR1 protein level in 293T cells", "experiment": "CASTOR1 protein level by immunoblotting after chemical treatment", "assay_type": "cell-based, human", "conditions": "for Flag-CASTOR1 S14D protein level: 293T cells stably expressing Flag-CASTOR1 S14D; for Flag-CASTOR1 S14D protein level / Flag-CASTOR1 WT and S14A protein level: FIG. 10B-10D; for Flag-CASTOR1 WT and S14A protein level: 293T cells stably expressing Flag-CASTOR1 WT or S14A", "method": "(§1) Cell culture and transfection: 293T cells obtained from ATCC (CRL-3216) were maintained in DMEM supplemented with 10% FBS. MCF7, T47D, HCC1569, and HCC202 cells were obtained from Dr. Xiaosong Wang at the University of Pittsburgh, and cultured in RPMI1640 with 10% FBS. MM cells were cultured in DMEM plus 10% FBS, while KMM cells were cultured in DMEM plus 10% FBS and 10 μg/ml hygromycin. HSAEC (FC-0016) and HLBEC (FC-0054) cells were purchased from Lifeline and cultured with the BronchiaLife™ Epithelial Airway Medium Complete Kit (Lifeline LL-0023). All cells were maintained at 37 C° in 5% CO2.\n(§2) For amino acid deprivation and re-stimulation to assess mTORC1 activation, cells were incubated in EBSS medium (Thermo 24010043) for 50 min and then stimulated by adding arginine (Sigma A5131) at the indicated concentration. For ubiquitination assays, cells were deprived of FBS or arginine, or treated with 10 μM MK2206 (Selleckem S1078) overnight before immunoprecipitation and immunoblotting, or re-stimulated with FBS or arginine for 12 h before analysis.\nFor chemical treatments, CHX (CST 2112) or MG132 (Sigma M8699) dissolved in DMSO (VWR 97061-250) was diluted in medium to a specified concentration. Medium containing MG132 or CHX was then used to replace the original medium, and cells were cultured in the presence of MG132 for a specified time.\nImmunoblotting analysis: To detect all proteins except CASTOR1, samples were separated with 4%-20% SDS-polyacrylamide gels (Genscript M00656 and M00657). To detect CASTOR1 protein, samples were resolved with 10% SDS-polyacrylamide gels (Genscript M00665 and M00666). Proteins resolved in gels were then transferred to nitrocellulose membranes (GE Healthcare 10600004), which were incubated with primary and secondary antibodies overnight and for 1 h at room temperature, respectively. The signals were developed using the Luminiata Crescendo Western HRP Substrate (EMD Millipore WBLUR0500) and SuperSignal West Femto Maximum Sensitivity Substrate (Thermo 34096) or fluorescence secondary antibodies. The images were recorded with a ChemiDoc MP Imaging System (Bio-Rad 17001402) at either Chemi, Dylight 500, DyLight 800, or StarBright B700 channels."}, "[2]": {"molecular_target": "human CASTOR1 wild type (Flag-CASTOR1 WT) (UniProt Q8WTX7)"}, "[3]": {"molecular_target": "T1, recombinant GST-CASTOR1 protein (Novus Biologicals, H00652968-P01) (UniProt Q8WTX7)", "T1 sequence": "B1 chain"}, "mTORC1": {"test_system": "mTORC1", "experiment": "mTORC1 activation status (pS6K, p4EBP1) by immunoblotting", "assay_type": "cell-based, human", "conditions": "293T cells, FIG. 1C", "method": "as §1\nFor amino acid deprivation and re-stimulation to assess mTORC1 activation, cells were incubated in EBSS medium (Thermo 24010043) for 50 min and then stimulated by adding arginine (Sigma A5131) at the indicated concentration. […]\n(§3) Immunoblotting analysis: To detect all proteins except CASTOR1, samples were separated with 4%-20% SDS-polyacrylamide gels (Genscript M00656 and M00657). […] The signals were developed using the Luminiata Crescendo Western HRP Substrate (EMD Millipore WBLUR0500) and SuperSignal West Femto Maximum Sensitivity Substrate (Thermo 34096) or fluorescence secondary antibodies. The images were recorded with a ChemiDoc MP Imaging System (Bio-Rad 17001402) at either Chemi, Dylight 500, DyLight 800, or StarBright B700 channels."}, "CASTOR1 mRNA": {"test_system": "CASTOR1 mRNA", "experiment": "CASTOR1 mRNA level by RT-qPCR", "assay_type": "cell-based, human", "conditions": "293T cells, FIG. 6K", "description": "Reverse transcription real-time quantitative polymerase-chain reaction (RT-qPCR): Total RNA was extracted by using TRI Reagent (Sigma T9424) based on the manufacturer's instructions. Total RNA was subjected to reverse transcription using the Maxima H Minus First Strand cDNA Synthesis Kit (Thermo K1652). SsoAdvanced™ Universal SYBR® Green Supermix Kit (Bio-Rad 172-5272) was applied for qPCR analysis. The relative mRNA levels were normalized to a house-keeping gene, which yielded 2^−ΔΔCt values. For qPCR reaction, each sample was run in triplicates with cycle threshold (Ct) values within 0.5 Ct differences among the triplicates. The primers used for gene expression were 5′[…]3′ (forward; SEQ ID NO: 22) and 5′[…]3′ (reverse; SEQ ID NO: 23) for human CASTOR1; and […] (forward; SEQ ID NO: 24) and […] (reverse; SEQ ID NO: 25) for human β-actin."}, "[4]": {"test_system": "CASTOR1 phosphorylation at S14", "experiment": "CASTOR1 phosphorylation at the AKT consensus motif (S14), immunoprecipitation and immunoblotting", "assay_type": "cell-based, human", "conditions": "Flag-CASTOR1 in cells, FIG. 2C", "method": "as §2\nImmunoprecipitation. Cells were lysed in lysis buffer (50 mM Tris-HCl, with 150 mM NaCl, 1 mM EDTA, and 1% Triton X-100, pH 7.4) supplemented with a complete protease inhibitor cocktail (Thermo 78438) and phosphatase inhibitor (Thermo 78427), followed by centrifugation at 4° C. for 5 min. […]\nas §3"}, "AKT1": {"molecular_target": "T2, AKT1 (Homo sapiens, UniProt P31749)", "T2 construct": "purchased Novus Biologicals 1775-KS (GST-AKT1); H00652968-P01 (GST-CASTOR1)", "T2 sequence (P31749 whole entry)": "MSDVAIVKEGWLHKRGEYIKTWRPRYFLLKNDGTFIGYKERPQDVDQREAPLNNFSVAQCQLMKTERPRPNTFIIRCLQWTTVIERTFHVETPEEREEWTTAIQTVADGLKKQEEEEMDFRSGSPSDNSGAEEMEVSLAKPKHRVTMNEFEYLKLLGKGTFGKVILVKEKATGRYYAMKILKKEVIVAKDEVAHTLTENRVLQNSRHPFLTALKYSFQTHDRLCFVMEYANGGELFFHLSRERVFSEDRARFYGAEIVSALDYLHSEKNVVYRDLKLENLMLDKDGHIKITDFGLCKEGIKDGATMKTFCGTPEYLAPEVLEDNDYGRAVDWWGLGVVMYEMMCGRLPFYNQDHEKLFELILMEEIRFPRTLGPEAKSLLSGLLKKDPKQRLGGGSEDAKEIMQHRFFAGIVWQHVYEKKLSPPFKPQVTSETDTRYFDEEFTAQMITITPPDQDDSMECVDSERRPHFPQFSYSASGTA", "experiment": "In vitro kinase assay, GST-AKT1 phosphorylation of GST-CASTOR1", "assay_type": "biochemical", "conditions": "in the presence of ATP, FIG. 2D", "method": "In vitro kinase assay: Recombinant GST-AKT1 protein (Novus Biologicals, 1775-KS) was mixed with GST-CASTOR1 protein (Novus Biologicals, H00652968-P01) in a 30 μl reaction mixture at room temperature for 1 h. The reaction mixture contained protease inhibitors, 100 mM HEPES (pH 7.4), 150 mM NaCl, 50 mM MgCl2,1 mM DTT, 0.01% NaN3, 1 mM ATP, 0.2 μg GST-AKT1 and 1 μg GST-CASTOR1."}, "ER+ breast cancer cells": {"test_system": "ER+ breast cancer cells", "experiment": "Endogenous CASTOR1 protein level in ER+ breast cancer cells by immunoblotting", "assay_type": "cell-based, human", "conditions": "FIG. 13D", "method": "as §1\nas §3, with “M00657). To detect CASTOR1 protein, samples were resolved with 10% SDS-polyacrylamide gels (Genscript M00665 and M00666).” for “M00657).”"}, "[5]": {"molecular_target": "the molecule itself", "experiment": "dimerization assay, method not described (FIG. 33)"}},
  "note": "“Also recorded” adds a separate entry of the source. Peptide text beside a SMILES is read from it. * marks the point of attachment. Cbz = O=C(OCc1ccccc1)*",
  "data": [
    {"molecule": "CC(C)C[C@@H](C=O)NC(=O)[C@H](CC(C)C)NC(=O)[C@H](CC(C)C)NC(=O)OCc1ccccc1", "note": "[MG132] (Cbz-Leu-Leu-Leu-aldehyde)", "values": [
      {"measurement": "accumulation of CASTOR1 protein", "setting": "[1]; 293T cells co-transfected with Flag-CASTOR1 and myr-HA-AKT1, FIG. 9H", "value": "increased the accumulation of CASTOR1 protein"},
      {"measurement": "Flag-CASTOR1 S14D protein level", "setting": "[1]", "value": "increased S14D protein level"},
      {"measurement": "Flag-CASTOR1 WT and S14A protein level", "setting": "[1]", "value": "minimal effects on WT and S14A"},
      {"measurement": "RNF167-mediated downregulation of CASTOR1 protein", "setting": "[1]; RNF167 overexpression, FIG. 7H", "value": "partially rescues"},
      {"measurement": "accumulation of CASTOR1 protein", "setting": "[1]; cells expressing Flag-CASTOR1 and the vector control, FIG. 9H", "value": "only had a marginal effect"}
    ]},
    {"molecule": "RING finger protein 167 (RNF167)", "values": [
      {"measurement": "CASTOR1 ubiquitination", "setting": "[2]", "value": "only RNF167 increased CASTOR1 ubiquitination"}
    ]},
    {"molecule": "C[C@@H]1C[C@@H]([C@H](O)CC2CC(=O)NC(=O)C2)C(=O)[C@@H](C)C1", "note": "[CHX, cycloheximide]", "values": [
      {"measurement": "Flag-CASTOR1 S14D protein level", "setting": "[1]", "value": "reduced"},
      {"measurement": "Flag-CASTOR1 WT and S14A protein level", "setting": "[1]", "value": "minimal effects on WT and S14A"}
    ]},
    {"molecule": "recombinant GST-AKT1 protein (Novus Biologicals, 1775-KS)", "values": [
      {"measurement": "in vitro kinase assay: phosphorylation of GST-CASTOR1", "setting": "[3]", "value": "efficiently phosphorylated purified GST-tagged CASTOR1 (GST-CASTOR1) recombinant protein only in the presence of ATP, which was abolished by AKT inhibitor MK2206"}
    ]},
    {"molecule": "NC1(c2ccc(-c3nc4ccn5c(=O)[nH]nc5c4cc3-c3ccccc3)cc2)CCC1", "note": "[MK2206]", "values": [
      {"measurement": "CASTOR1 protein level", "setting": "[1]; 293T cells, FIG. 1C", "value": "upregulated CASTOR1 protein"},
      {"measurement": "mTORC1 activation", "setting": "mTORC1", "value": "decreased mTORC1 activation"},
      {"measurement": "CASTOR1 mRNA level", "setting": "CASTOR1 mRNA", "value": "but not mRNA level"},
      {"measurement": "specific phosphorylation of the AKT motif of CASTOR1 (S14)", "setting": "[4]", "value": "significantly reduced the specific phosphorylation of the AKT motif"},
      {"measurement": "phosphorylation of purified GST-CASTOR1 by purified GST-AKT1", "setting": "AKT1", "value": "abolished"},
      {"measurement": "endogenous CASTOR1 protein level", "setting": "ER+ breast cancer cells", "value": "enhanced; also recorded: increases the endogenous CASTOR1 protein level"}
    ]},
    {"molecule": "B1", "values": [
      {"measurement": "binding result", "setting": "[5]", "value": "binds"}
    ]}
  ]
}
